From US20260285810A1, “CRYSTAL FORM OF MUSCARINE ANTAGONIST, METHOD FOR PREPARING SAME, AND USE THEREOF” (SICHUAN KELUN PHARMACEUTICAL RESEARCH INSTITUTE CO., LTD., priority 2023, published 2026)

Legend:
Format in all cases: physicochemical
[1] = Bulk density and tap density (powder density tester); details: Example 1 batch
Method: The top surface is carefully leveled, and the apparent volume is recorded. The cylinder is then placed on the powder density tester and shaken at a frequency of 1250. The taped volume is recorded, and then the tap density is calculated. The same batch of samples is tested three times in parallel.

[2] = Particle size distribution (Malvern Mastersizer 3000); details: Example 1 batch; dispersion solvent water
Method: Test method: The particle type is set as non-spherical, the particle refractive index is 1.52, the particle absorption rate is 0.001, and the rotation speed is 1800 rpm; the obscuration is 2%-15%, the sample background test time is 10 seconds, the dispersion solvent is water, the dispersant refractive index is 1.330, and the stabilization time is about 30 seconds; the number of tests is 3.

[3] = Angle of repose (powder comprehensive characteristic tester); details: Example 1 batch
Method: The powder falls through the funnel to form a cone, and then the angle between the inclined plane and the horizontal plane is determined. The test is repeated in triplicate.

[4] = Drying of wet crystal product with Karl Fischer water content and XRPD testing; details: drying at 30° C.-35° C., vacuum
Method: (§1) The XRPD pattern of the crystal form is collected using an X'Pert3 Powder diffractometer, which uses Cu […] irradiation and performs detection using Absolute scan at room temperature. The detection range is from 3.5° to 40°, with a step size of 0.013°, a dwell time of 50 s, and one scan.
The wet crystal product of Example 1 was dried under conditions of a temperature of 30° C.-35° C. and a vacuum degree of −0.08 Mpa. During the drying, the samples were collected for Karl Fischer water content testing and XRPD.

[5] = Temperature- and humidity-mediated crystal transformation (XRPD, HPLC purity, KF water content)
Method: as §1
Samples 1 and 2 were tested for XRPD, HPLC purity, and KF water content.

[6] = Influencing factors stability: high temperature, high humidity, illumination, accelerated conditions (XRPD, HPLC purity); details: for remaining at 840 h: solid state
Excerpt: Samples were collected and tested for XRPD and HPLC purity at day 0, day 5, day 10, and day 35, respectively.

[7] = Accelerated and long-term storage, crystal form by XRPD
Method: The packaged samples were stored under conditions of 30° C./35% RH and 40° C./75% RH, and collected and investigated for crystal forms at day 0, 3 months, and 6 months, respectively.

[8] = Hygroscopic weight gain on storage at 80% humidity for 24 hours; details: stored under a humidity condition of 80%+2% for 24 hours
[9] = Dynamic vapor sorption (DVS) evaluation; details: DVS 25° C.
Method: The DVS pattern of the crystal form is tested using a DVS Intrinsic (SMS) at a test temperature of 25° C. and detected in cycle-DMDT mode.
Dynamic vapor sorption curve (also referred to as adsorption-desorption characteristic curve) was evaluated using a DVS Intrinsic (SMS). Approximately 30 mg of the sample prepared in Example 1 was subjected to a three-stage programmed scanning method at room temperature (25° C.) as follows: the first-stage hygroscopicity program involving a stepwise increase in relative humidity from 60% RH to 90% RH, with a relative humidity change rate of 10% RH/step; the second-stage hygroscopicity program involving a stepwise decrease in relative humidity from 90% RH to 0% RH, with a relative humidity change rate of 10% RH/step; and the third-stage hygroscopicity program involving a stepwise increase in relative humidity from 0% RH to 90% RH, with a relative humidity change rate of 10% RH/step. The mass change rate mode (dm/dt mode) was used, where when the mass change rate (dm/dt) was ≤0.005%, the instrument program controlled the switching of the relative humidity (RH) to the next stage and maintained constant humidity (+/−10% RH).

[10] = before/after drying (30° C., vacuum, humidity ≤20%, 24 h) and re-storage (RH 60%-80%, 25° C.-30° C., 24 h)
[11] = Illumination at 25° C. (4500 lx), day 35
[12] = day 0, Example 3 batch, packaged

For CN(CCN1CCC(OC(=O)Nc2ccccc2-c2ccccc2)CC1)C(=O)c1ccc(CN2CCC(C(N)=O)CC2)cc1 [crystal form A of revefenacin], the bulk density [1] was 0.285 g/mL, the tap density [1] was 0.494 g/mL and the “particle size D10” value [2] was 8.40 μm. For the same molecule, the “particle size D50” value [2] was 25.86 μm, the “particle size D90” value [2] was 53.59 μm and the “powder angle of repose” value [3] was 45 °. For the same molecule, the “crystal form (XRPD)” value ([4]; KF water content=7.1%) was “mixed crystals”, the “crystal form (XRPD)” value ([4]; KF water content=8.3%) was “crystal form A” and the “crystal form (XRPD)” value ([4]; KF water content=8.9%) was “crystal form A”. For the same molecule, the “crystal form (XRPD)” value ([4]; KF water content=17%) was “crystal form A”, the HPLC % [5, 10] was 99.79% and the KF/water content [5, 10] was 9.1%. For the same molecule, the XRPD [5, 10] was “Crystal form A”, the “chemical purity of the crystal form” value ([5]; during the temperature- and humidity-mediated mutual transformation of crystal forms) was “remains unchanged” and the XRPD crystal form ([6]; 40° C., day 5) was “form A”. For the same molecule, the XRPD crystal form ([6]; 40° C., day 10) was “form A”, the XRPD crystal form ([6]; 40° C., day 35) was “Crystal form A” and the XRPD crystal form ([6]; 40° C./75% RH, day 5) was “form A”. The XRPD crystal form ([6]; 40° C./75% RH, day 10) was “form A”, the XRPD crystal form ([6]; 40° C./75% RH, day 35) was “Crystal form A” and the XRPD crystal form ([6]; 92.5% RH (25° C.), day 5) was “form A”. The XRPD crystal form ([6]; 92.5% RH (25° C.), day 10) was “form A”, the XRPD crystal form ([6]; 92.5% RH (25° C.), day 35) was “Crystal form A” and the XRPD crystal form ([6]; Illumination at 25° C. (4500 lx), day 5) was “form A”. For the same molecule, the XRPD crystal form ([6]; Illumination at 25° C. (4500 lx), day 10) was “form A”, the XRPD crystal form [6, 11] was “Crystal form A” and the “Purity (HPLC)” value [6, 12] was “Purity: 99.87%”. For the same molecule, the XRPD crystal form [6, 12] was “form A”, the “crystal form on exposure to stress conditions” value ([6]; high temperature (40° C.), high humidity (92.5% RH), illumination and accelerated (40° C./75% RH) conditions) was “remains unchanged” and the remaining at 840 h ([6]; 40° C., day 35) was 99.9%. It also gave a remaining at 840 h ([6]; 40° C./75% RH, day 35) of 99.9%, a remaining at 840 h ([6]; 92.5% RH (25° C.), day 35) of 99.9% and a remaining at 840 h [6, 11] of 99.9%. The “crystal form and crystallinity” value ([7]; 3-month and 6-month storage under the accelerated condition (40° C./75% RH)) was “remains unchanged in both crystal form and crystallinity”, the crystal form ([7]; 30° C./35% RH, 6 months) was “Crystal form A” and the crystal form ([7]; 30° C./35% RH, day 0) was “Crystal form A”. For the same molecule, the crystal form ([7]; 40° C./75% RH, 3 months) was “Crystal form A”, the crystal form ([7]; 40° C./75% RH, 6 months) was “Crystal form A” and the crystal form ([7]; 40° C./75% RH, day 0) was “Crystal form A”. The “crystal form and crystallinity” value ([7]; long-term conditions (30° C./35% RH) for 6 months) was “remains unchanged in both crystal form and crystallinity”, the hygroscopic weight gain [8] was < 2% and the hygroscopic weight gain ([9]; humidity increased from 60% RH to 90% RH, sample of Example 1) was < 0.4%. For the same molecule, the hygroscopic weight gain ([9]; within the range of 30%-90% RH, sample of Example 1) was < 2%, the “crystal form of the samples collected during the DVS process” value ([9]; sample of Example 1) was “remains unchanged” and the DVS curve characteristics ([9]; sample of Example 1, FIG. 5) was “reversible adsorption/desorption characteristics and low hygroscopicity”.
